Laboratory results as given in patent publication US20240197652A1, “KETAMINE IN THE TREATMENT OF […]” (Awakn LS Europe Holdings Limited, priority 2021, published 2024).

What was measured:
Assay type in all cases: in vivo, human
[1] = test system: subjects with gaming disorder; test: Craving for Gaming Questionnaire (CGQ), Example 9; settings: for CGQ score at 2-week follow up: after 100 mg racemic ketamine sublingual; for CGQ score, pre-administration: baseline before 100 mg racemic ketamine sublingual; for % change in Craving for Gaming Questionnaire: pre-administration to 2-week follow up, 100 mg racemic ketamine sublingual
Experimental: A study was completed on ketamine to treat gaming disorder. Subjects were assessed for gaming disorder using the Internet Gaming Disorder Scale (IGDS) and were included if they received an IGDS score greater than 3. Three subjects in total were included (IG1-IG3). All three were administered sublingual lozenges comprising 100 mg of racemic ketamine.
The treatment protocol commenced in the same manner as disclosed in the ketamine in subjects with gambling disorder study completed in EXAMPLE 7, with the exceptions as follow: No behavioural tasks were completed. Self-report measures completed during EXAMPLE 9 included Social Phobia Inventory (SPIN), the Craving for Gaming Questionnaire (CGQ), and Generalised Anxiety Disorder-7 (GAD-7) the Sensitivity to Reward and Punishment Scale, and the Childhood Trauma Questionnaire, the Morningness-Eveningness Questionnaire (MEQ).

[2] = test system: subjects with CSBD; test: Hours of pornography viewed per day, Example 10; settings: for hours of pornography watched daily at 2-week follow up: after 100 mg racemic ketamine sublingual; for hours of pornography watched daily, pre-administration: baseline before 100 mg racemic ketamine sublingual; for % change in hours of pornography viewed: pre-administration to 2-week follow up, 100 mg racemic ketamine sublingual
Experimental: A study was completed on the use of ketamine to treat CSBD. Subjects were assessed for CSBD using the Problematic Pornography Use Scale (PPUS) and were included if they received an PPUS score greater than 3. Three subjects in total were included (CSB1-CSB3). All three were administered sublingual lozenges comprising 100 mg of racemic ketamine.
The treatment protocol commenced in the same way as disclosed in the ketamine in subjects with gambling disorder study completed in EXAMPLE 7, with the exceptions outlined as follows: No behavioural tasks were completed. Self-report measures completed during EXAMPLE 10 included the Emotional Intimacy Measure, the Childhood Trauma Questionnaire, the Generalised Anxiety Disorder-7 (GAD-7), the Morningness-Eveningness Questionnaire (MEQ), and the Problematic Pornography Questionnaire (PPQ), the Acceptance and Action Questionnaire, and the Psychological and Interpersonal Relationship Scales (PAIRS).

[3] = test system: subjects of EXAMPLES 7-10; test: Beck Depression Inventory (BDI), subjects of Examples 7-10; settings: for BDI Score at the one-week follow up / Depression Severity at the One Week Follow Up (BDI): after 100 mg racemic ketamine sublingual; for BDI Score pre-treatment / Depression Severity Pre-Treatment (BDI): baseline before 100 mg racemic ketamine sublingual; for % Change in BDI score: pre-treatment to one-week follow up, 100 mg racemic ketamine sublingual
Experimental: The study spanned a total of 30 days (not counting initial contact and prescreening). Prescreening of all subjects was conducted by phone, and subjects recorded self-report measures, including the Sensitivity to Punishment and Sensitivity to Reward Questionnaire (SPSRQ) and the Gambling Related Cognitions Questionnaire. Prior to beginning treatment, each subject completed the Beck Depression Inventory (BDI) to determine a baseline depression score. Total scores of 0-13 are minimal, 14-19 are mild, 20-28 are moderate, and 29-63 are severe (Beck, Steer, and Brown, 1996).

[4] = subject BE1 (binge eating disorder)
[5] = subject BE2 (binge eating disorder)
[6] = subject BE3 (binge eating disorder)

CNC1(c2ccccc2Cl)CCCCC1=O (racemic) [ketamine, 2-(2-chlorophenyl)-2-(methylamino)-cyclohexanone]
CGQ score at 2-week follow up ([1]; subject IG1): 28 | CGQ score, pre-administration ([1]; subject IG1): 30 | % change in Craving for Gaming Questionnaire ([1]; subject IG1): −6.67% | CGQ score at 2-week follow up ([1]; subject IG2): 15 | CGQ score, pre-administration ([1]; subject IG2): 31 | % change in Craving for Gaming Questionnaire ([1]; subject IG2): −51.61% | CGQ score at 2-week follow up ([1]; subject IG3): 21 | CGQ score, pre-administration ([1]; subject IG3): 45 | % change in Craving for Gaming Questionnaire ([1]; subject IG3): −53.33% | hours of pornography watched daily at 2-week follow up ([2]; subject CSB1): 0.5 h | hours of pornography watched daily, pre-administration ([2]; subject CSB1): 2 h | % change in hours of pornography viewed ([2]; subject CSB1): −75% | hours of pornography watched daily at 2-week follow up ([2]; subject CSB2): 3 h | hours of pornography watched daily, pre-administration ([2]; subject CSB2): 4 h | % change in hours of pornography viewed ([2]; subject CSB2): −25% | hours of pornography watched daily at 2-week follow up ([2]; subject CSB3): 1 h | hours of pornography watched daily, pre-administration ([2]; subject CSB3): 1 h | BDI Score at the one-week follow up [3, 4]: 2 | BDI Score pre-treatment [3, 4]: 9 | % Change in BDI score [3, 4]: −77.78% | BDI Score at the one-week follow up [3, 5]: 15 | BDI Score pre-treatment [3, 5]: 19 | % Change in BDI score [3, 5]: −21.05% | BDI Score at the one-week follow up [3, 6]: 1 | BDI Score pre-treatment [3, 6]: 21 | % Change in BDI score [3, 6]: −95.24% | Depression Severity at the One Week Follow Up (BDI) ([3]; subject BE3): Minimal (Total scores of 0-13 are minimal) | Depression Severity Pre-Treatment (BDI) ([3]; subject BE3): Moderate (20-28 are moderate) | BDI Score at the one-week follow up ([3]; subject CSB1 (CSBD)): 9 | BDI Score pre-treatment ([3]; subject CSB1 (CSBD)): 24 | % Change in BDI score ([3]; subject CSB1 (CSBD)): −62.50% | Depression Severity at the One Week Follow Up (BDI) ([3]; subject CSB1): Minimal (Total scores of 0-13 are minimal) | Depression Severity Pre-Treatment (BDI) ([3]; subject CSB1): Moderate (20-28 are moderate) | BDI Score at the one-week follow up ([3]; subject CSB2 (CSBD)): 12 | BDI Score pre-treatment ([3]; subject CSB2 (CSBD)): 14 | % Change in BDI score ([3]; subject CSB2 (CSBD)): −14.29% | Depression Severity at the One Week Follow Up (BDI) ([3]; subject CSB2): Minimal (Total scores of 0-13 are minimal) | Depression Severity Pre-Treatment (BDI) ([3]; subject CSB2): Mild (14-19 are mild) | BDI Score at the one-week follow up ([3]; subject CSB3 (CSBD)): 7 | BDI Score pre-treatment ([3]; subject CSB3 (CSBD)): 19 | % Change in BDI score ([3]; subject CSB3 (CSBD)): −63.16% | Depression Severity at the One Week Follow Up (BDI) ([3]; subject CSB3): Minimal (Total scores of 0-13 are minimal) | Depression Severity Pre-Treatment (BDI) ([3]; subject CSB3): Mild (14-19 are mild) | BDI Score at the one-week follow up ([3]; subject G1 (gambling disorder)): 9 | BDI Score pre-treatment ([3]; subject G1 (gambling disorder)): 8 | % Change in BDI score ([3]; subject G1 (gambling disorder)): +12.5% | BDI Score at the one-week follow up ([3]; subject G2 (gambling disorder)): 24 | BDI Score pre-treatment ([3]; subject G2 (gambling disorder)): 21 | % Change in BDI score ([3]; subject G2 (gambling disorder)): +14.29% | BDI Score at the one-week follow up ([3]; subject G3 (gambling disorder)): 14 | BDI Score pre-treatment ([3]; subject G3 (gambling disorder)): 17 | % Change in BDI score ([3]; subject G3 (gambling disorder)): −17.65% | BDI Score at the one-week follow up ([3]; subject G4 (gambling disorder)): 6 | BDI Score pre-treatment ([3]; subject G4 (gambling disorder)): 8 | % Change in BDI score ([3]; subject G4 (gambling disorder)): −25% | BDI Score at the one-week follow up ([3]; subject G5 (gambling disorder)): 11 | BDI Score pre-treatment ([3]; subject G5 (gambling disorder)): 12 | % Change in BDI score ([3]; subject G5 (gambling disorder)): −8.33% | BDI Score at the one-week follow up ([3]; subject IG1 (gaming disorder)): 10 | BDI Score pre-treatment ([3]; subject IG1 (gaming disorder)): 15 | % Change in BDI score ([3]; subject IG1 (gaming disorder)): −33.33% | Depression Severity at the One Week Follow Up (BDI) ([3]; subject IG1): Minimal (Total scores of 0-13 are minimal) | Depression Severity Pre-Treatment (BDI) ([3]; subject IG1): Mild (14-19 are mild) | BDI Score at the one-week follow up ([3]; subject IG2 (gaming disorder)): 8 | BDI Score pre-treatment ([3]; subject IG2 (gaming disorder)): 4 | % Change in BDI score ([3]; subject IG2 (gaming disorder)): +100% | BDI Score at the one-week follow up ([3]; subject IG3 (gaming disorder)): 9 | BDI Score pre-treatment ([3]; subject IG3 (gaming disorder)): 10 | % Change in BDI score ([3]; subject IG3 (gaming disorder)): −10%
